Test: Franz cell skin delivery of hexylresorcinol (HPLC)
Type: in vitro ADME
Details: Franz cells, n=4, FIG. 3
Text: Wash Franz cells with ethanol 70%, water and receptor solution (1×PBS, phosphate buffered saline).
Measure skin thickness and electrical resistance
Mount the tissue on Franz cells (n=4).
Once equilibrated, make sure there isn't excess moisture on the surface of the tissue (SC) by dabbing the skin surface with Kimwipes.
Carefully remove the backing on the film and place it on the donor area with a light pressure (5 times tap on skin surface); the adhesive side is in touch with skin.
Mount the donor chamber and leave it overnight
Next morning (After 16 h time point), take a sample (300 uL) (Oh), replace with fresh 1×PBS.
Add 100 uL 1×PBS to the donor chamber, let it sit for 30 sec, remove it using a plastic pipet moving around the edge of the donor. Repeat this cycle 5 times. Pool these 1×PBS solution and analyze by HPLC
Remove the donor chamber with the tissue still mounted on the Franz cells. Use a cotton swab to take out all the remained liquid on skin. Extract drug from this swab by shaking at 100 rpm overnight in 2 mL ethanol: Water (50:50 v/v).
Put the donor chamber back. After every 2 hours (2,4,6 h), take sample (300 uL) and replace with fresh receptor solution.
At 22 h, remove the donor chamber, remove skin from cells, put skin on sheets of paper and do tape stripping with 2 tapes to remove the excessive drug on skin surface. Put these 2 tapes in a well in 6-well plate for extraction. […]

With `CCCCCCCC/C=C\CCCCCCCC(=O)OCC(O)CO` (stereo not shown) [Monumuls, glycerol oleate] the “delivery of the hexylresorcinol compared to Example 16C (no emulsifier)” value was “greatly enhanced”.
